# According to publication PMC5068747, “Using C. elegans Forward and Reverse Genetics to Identify New Compounds with Anthelmintic Activity” (PLoS Neglected Tropical Diseases, 2016):
# How the values were obtained:
# Format in all cases: in vivo, Caenorhabditis elegans
# [1] = test system: C. elegans RB2119 (acr-23(ok2804), monepantel-resistant); assay: IC50 on amino-acetonitrile resistant C. elegans strain; settings: Caenorhabditis elegans, 120 h; 5 days exposure, 2 L4 per well, three biological replicates; read-out: IC50, strain RB2119 (amino-acetonitriles)
# [2] = test system: C. elegans mitochondrial complex II (mev-1, sdha-1, sdhb-1, sdhd-1) mutant strains; assay: Resistance of mitochondrial complex II mutant MMP strains to CID 2747322
# Text: CID 2747322 shares some structural similarity to the WACT-11 compound identified by. […] This led us to examine MMP strains with mutations in the other three mitochondrial complex II subunits; sdha-1, sdhb-1 and sdhd-1, to see if any of these strains are also resistant to CID 2747322. For thirteen strains with sdha-1 missense mutations, three are resistant. For eight strains with sdhb-1 missense mutations, two are resistant. For sdhd-1, one of five MMP strains is resistant (Table 5). To better understand how these different alleles might alter drug effectiveness, we mapped all of these mutations plus gk3613 onto an X-ray resolved protein crystal structure of the mitochondrial complex II of Ascaris suum (PDB: 3VRB) (Fig 3a).
# C. elegans VC2010 = assay: Manual inspection of growth, brood size, developmental stage and recovery of C. elegans in drug
# Protocol: WormScan is a powerful tool to identify compounds with potential effects on the nematode, but it is still necessary to do manual inspection of wells with few animals to determine details of growth, behavior and fecundity. Wild-type worms grown in 90 μM CID 2747322 have brood sizes reduced by 97%. […] All current classes of anthelmintic have greater specificity towards certain life-stages. It is interesting that when removed from the drug L1s will recover and develop, and generally become fertile adults (See S3 Fig).
# Supplementary file pntd.0005058.s002.tiff: S2 Fig Developmental stage of inhibition in C. elegans after CID 2747322 exposure. Ten VC2010 L1 stage C. elegans were sorted into a DMSO control well or 90 μM of CID 2747322. Nematodes were removed from the DMSO control or CID 2747322 after 24/48/72 hours and allowed to recover for 30 minutes on standard agar plates. (TIFF) Click here for additional data file.
# Supplementary file pntd.0005058.s003.tiff: S3 Fig Development of C. elegans after removel from CID 2747322. Greater than 50 VC2010 L1 stage C. elegans were sorted into a DMSO control well or 90 μM of CID 2747322. Nematodes were removed from DMSO control or CID 2747322 after 2 days of exposure and left to recovery for 24/48/72 hours. (TIFF) Click here for additional data file.
smiles,measurement,setting,value
"COc1ccc(OCCNC(=O)c2ccccc2C(F)(F)F)cc1 [CID 2747322, N-[2-(4-methoxyphenoxy)ethyl]-2-(trifluoromethyl)benzamide]",IC50,[1],5 µM
same,Resistance,"[2]; strain VC20295, sdhd-1 A30V",none
same,Resistance,"[2]; strain VC20401, sdhb-1 S209L",resistant
same,Resistance,"[2]; strain VC20417, sdha-1 E305K",none
same,Resistance,"[2]; strain VC20501, mev-1 S178N",none
same,Resistance,"[2]; strain VC20587, sdhb-1 E294K",none
same,Resistance,"[2]; strain VC20602, mev-1 G77S",resistant
same,Resistance,"[2]; strain VC30090, sdha-1 G363E",sensitive
same,Resistance,"[2]; strain VC30107, sdha-1 S292T",sensitive
same,Resistance,"[2]; strain VC30120, sdhd-1 L59F",none
same,Resistance,"[2]; strain VC40073, sdha-1 S142F",sensitive
same,Resistance,"[2]; strain VC40186, sdhb-1 D192E",none
same,Resistance,"[2]; strain VC40193, sdhb-1 T285I",resistant
same,Resistance,"[2]; strain VC40304, sdha-1 P385S",none
same,Resistance,"[2]; strain VC40350, sdha-1 V131I",none
same,Resistance,"[2]; strain VC40364, sdhb-1 N118I",sensitive
same,Resistance,"[2]; strain VC40386, sdhd-1 A97V",resistant
same,Resistance,"[2]; strain VC40391, sdha-1 G335E",resistant
same,Resistance,"[2]; strain VC40423, sdhb-1 I280S",sensitive
same,Resistance,"[2]; strain VC40533, sdha-1 R482C",resistant
same,Resistance,"[2]; strain VC40570, sdhd-1 L120F",none
same,Resistance,"[2]; strain VC40576, sdha-1 D317N",sensitive
same,Resistance,"[2]; strain VC40631, sdha-1 H504Y",none
same,Resistance,"[2]; strain VC40752, sdhb-1 A34V",sensitive
same,Resistance,"[2]; strain VC40764, sdha-1 A425V",sensitive
same,Resistance,"[2]; strain VC40765, sdhb-1 L197F",none
same,Resistance,"[2]; strain VC40770, sdha-1 E472K",none
same,Resistance,"[2]; strain VC40781, mev-1 Y152D",resistant
same,Resistance,"[2]; strain VC40799, mev-1 R52C",none
same,Resistance,"[2]; strain VC40903, sdhd-1 D36N",none
same,Resistance,"[2]; strain VC40934, mev-1 G88E",none
same,Resistance,"[2]; strain VC41025, sdha-1 S570F",sensitive
same,developmental stage of inhibition,"C. elegans VC2010; 90 μM, while maintained in drug",arrest at the first larval stage (L1)
same,outcome after exposure / removal from drug,C. elegans VC2010; L1s removed from the drug,reversible inhibition
same,brood sizes reduced,C. elegans VC2010; wild-type worms grown in 90 μM,97%
